In patent US8435976B2, “4-substituted pyridin-3-yl-carboxamide compounds and methods of use” (F. Hoffmann-La Roche, priority 2009, dated 2013):

Legend:
PIM1 = target: T1, PIM1 (Homo sapiens, UniProt P11309); experiment: Pim-1 kinase enzymatic assay (Caliper LC3000, FAM-Pimtide substrate); assay type: biochemical; settings: 20 pM PIM1, 10 μM ATP, 90 minutes; read-out: PIM1 LC3K (Ki)
T1 construct: made in house
Method: (§1) Reaction Buffer contained 10 mM HEPES, pH 7.2, 10 mM MgCl2, 0.01% Tween 20, 2 mM DTT.
(§2) PIM reactions were carried out in a final volume of 10 μL per well in a 384-well plate. […] The separation of product and substrate was optimized by choosing voltages and pressure using Caliper's Optimizer software (Hopkinton, Mass.). The separation conditions used a downstream voltage of −500V, an upstream voltage of −2150V, and a screening pressure of −1.2 psi. […] Substrate conversion was calculated from the electrophoregram using HTS Well Analyzer software (Caliper Life Sciences, Hopkinton, Mass.). Ki values for the test compound were calculated.

PIM2 = target: T2, PIM2 (Homo sapiens, UniProt Q9P1W9); experiment: Pim-2 kinase enzymatic assay (Caliper LC3000, FAM-Pimtide substrate); assay type: biochemical; settings: 50 pM PIM2, 10 μM ATP, 90 minutes; read-out: PIM2 LC3K (Ki)
T2 construct: made in house
T2 sequence (Q9P1W9 whole entry): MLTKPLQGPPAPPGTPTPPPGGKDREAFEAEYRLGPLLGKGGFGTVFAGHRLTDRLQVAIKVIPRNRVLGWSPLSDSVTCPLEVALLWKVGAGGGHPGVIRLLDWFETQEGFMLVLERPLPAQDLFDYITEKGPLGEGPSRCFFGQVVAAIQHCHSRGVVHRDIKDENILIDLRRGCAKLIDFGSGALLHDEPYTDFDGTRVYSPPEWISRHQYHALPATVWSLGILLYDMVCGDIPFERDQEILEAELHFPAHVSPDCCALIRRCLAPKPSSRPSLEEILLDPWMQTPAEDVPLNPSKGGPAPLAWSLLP
Method: as §1, §2

PIM3 = target: T3, PIM3 (Homo sapiens, UniProt Q86V86); experiment: Pim-3 kinase enzymatic assay (Caliper LC3000, FAM-Pimtide substrate); assay type: biochemical; settings: 55 pM PIM3, 10 μM ATP, 90 minutes; read-out: PIM3 LC3K (Ki)
T3 construct: made in house
Method: as §1, §2

BaF3 PIM1 cells = BaF3 PIM1 cells (Homo sapiens, UniProt P11309); experiment: BaF3 PIM1 cell proliferation (Cell Titer Glo); assay type: cell-based; settings: incubated overnight; read-out: Prolif BaF3_PIM1 (IC50)
BaF3 PIM1 cells, sequence (P11309 whole entry, change not shown): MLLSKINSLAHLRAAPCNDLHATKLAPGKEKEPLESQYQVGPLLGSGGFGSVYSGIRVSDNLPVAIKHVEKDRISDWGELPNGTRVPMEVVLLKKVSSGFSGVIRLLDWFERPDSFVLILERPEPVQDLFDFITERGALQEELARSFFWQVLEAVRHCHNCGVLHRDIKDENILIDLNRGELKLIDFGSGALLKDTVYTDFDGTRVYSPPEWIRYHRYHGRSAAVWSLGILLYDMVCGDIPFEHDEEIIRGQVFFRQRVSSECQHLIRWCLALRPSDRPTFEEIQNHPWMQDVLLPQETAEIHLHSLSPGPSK
Method: (§3) BaF3 parental line was obtained from the DSMZ repository. BaF3 lines transfected with PIM1 or PIM2 were generated. Mouse IL-3 was purchased from R&D Systems. G418 was purchased from Clontech. Media for BaF3 parental line contained RPMI, 10% FBS, 2 mM L-Glutamine, 2 ng/mL mIL-3. Media for BaF3 PIM1 & 2 lines contained RPMI, 10% FBS, 2 mM L-Glutamine, […]. Media for MM1.S line contained RPMI, 10% FBS, 2 mM L-Glutamine.
(§4) BaF3 parental cells, BaF3 PIM1 cells, BaF3 PIM2 cells, and MM1.S cells were seeded at 2 k/well, 5 k/well, 5 k/well, and 10 k/well respectively, in a 384-well plate, at 45 μL/well. Test compound was added at 5 μL/well. BaF3 cells (parental and transfected) were incubated overnight, while MM1.S cells were incubated for 72 hours at 37° C., 5% CO2. Cell Titer Glo Reagent (Promega) was added at 50 μL/well, the plates were incubated for 30 minutes, and their luminescence read on an HT Analyst. IC50/EC50 values for the test compound were calculated.

BaF3 PIM2 cells = BaF3 PIM2 cells (Homo sapiens, UniProt Q9P1W9); experiment: BaF3 PIM2 cell proliferation (Cell Titer Glo); assay type: cell-based; settings: incubated overnight; read-out: Prolif BaF3_PIM2 (IC50)
BaF3 PIM2 cells, sequence (Q9P1W9 whole entry, change not shown): as the sequence (Q9P1W9 whole entry) above
Method: as §3, §4

MM1.S cells = experiment: MM1.S cell proliferation, 72 hours (Cell Titer Glo); assay type: cell-based; settings: Homo sapiens, 72 hours, read-out: Prolif MM1S ATP (EC50)
Method: as §3, §4

T1 sequence (P11309 whole entry): as the sequence (P11309 whole entry, change not shown) above

Row | Ki (PIM1) [nM] | Ki (PIM2) [nM] | Ki (PIM3) [nM] | GI50 (BaF3 PIM1 cells) [nM] | GI50 (BaF3 PIM2 cells) [µM] | EC50 (MM1.S cells) [nM] | Structure (SMILES)
1 | 0.036 | 0.0939 | 0.022 | 30.4 | 2.1 | 121 | Nc1sc(-c2ccc(F)cc2F)nc1C(=O)Nc1cnccc1N1CCC[C@H](N)C1 [Example 42, (S)-5-amino-N-(4-(3-aminopiperidin-1-yl)pyridin-3-yl)-2-(2,4-difluorophenyl)thiazole-4-carboxamide]
2 | 0.061 | 0.0185 | 0.022 | 45.5 | 3.9 | 237 | Nc1sc(-c2cccc(F)c2F)nc1C(=O)Nc1cnccc1N1CCC[C@H](N)C1 [Example 43, (S)-5-amino-N-(4-(3-aminopiperidin-1-yl)pyridin-3-yl)-2-(2,3-difluorophenyl)thiazole-4-carboxamide]
3 | 0.032 | 0.512 | 0.113 | 38.1 | 1.9 | 191 | Nc1sc(-c2ccc3cccnc3c2)nc1C(=O)Nc1cnccc1N1CCC[C@H](N)C1 [Example 44, (S)-5-amino-N-(4-(3-aminopiperidin-1-yl)pyridin-3-yl)-2-(quinolin-7-yl)thiazole-4-carboxamide]
4 | 0.561 | 2.78 | 0.338 | 613 | 12.5 | 5500 | N[C@H]1CCCN(c2ccncc2NC(=O)c2csc(-c3ccccc3F)n2)C1 [Example 45, (S)-N-(4-(3-aminopiperidin-1-yl)pyridin-3-yl)-2-(2-fluorophenyl)thiazole-4-carboxamide]
5 | 3.98 | 59.8 | 2.11 | 3900 | > 20 | > 20000 | CN(C)C(=O)c1ccc(F)c(-c2nc(C(=O)Nc3cnccc3N3CCC[C@H](N)C3)cs2)c1 [Example 47, (S)-N-(4-(3-aminopiperidin-1-yl)pyridin-3-yl)-2-(5-(dimethylcarbamoyl)-2-fluorophenyl)thiazole-4-carboxamide]
6 | 0.5 | 6.88 | 0.333 | 614 | 1.4 | 743 | Nc1sc(-c2c(F)cccc2F)nc1C(=O)Nc1cnccc1N1CCNCC1 [Example 50, 5-amino-2-(2,6-difluorophenyl)-N-(4-(piperazin-1-yl)pyridin-3-yl)thiazole-4-carboxamide]
7 | 0.0812 | 0.265 | 0.041 | 197 | > 20 | 156 | Nc1sc(-c2cc[nH]n2)nc1C(=O)Nc1cnccc1N1CCC[C@H](N)C1 [Example 51, (S)-5-amino-N-(4-(3-aminopiperidin-1-yl)pyridin-3-yl)-2-(1H-pyrazol-3-yl)thiazole-4-carboxamide]
8 | 0.0269 | 0.495 | 0.061 | 2200 | > 20 | 1300 | Nc1sc(-c2c(F)cccc2F)nc1C(=O)Nc1cnccc1N1CCC[C@H](O)C1 [Example 52, (S)-5-amino-2-(2,6-difluorophenyl)-N-(4-(3-hydroxypiperidin-1-yl)pyridin-3-yl)thiazole-4-carboxamide]
9 | 0.208 | 0.839 | 0.146 | 273 | 7.6 | 660 | CC(C)NC(=O)c1ccc(F)c(-c2nc(C(=O)Nc3cnccc3N3CCC[C@@H](N)C3)c(N)s2)c1 [Example 53, (R)-5-amino-N-(4-(3-aminopiperidin-1-yl)pyridin-3-yl)-2-(2-fluoro-5-(isopropylcarbamoyl)phenyl)thiazole-4-carboxamide]
10 | 26.9 | 72.3 | 23.1 | 7800 | > 20 | 15700 | Cc1cccc(C)c1-c1nc(C(=O)Nc2cnccc2N2CCC[C@H](N)C2)c(N)s1 [Example 54, (S)-5-amino-N-(4-(3-aminopiperidin-1-yl)pyridin-3-yl)-2-(2,6-dimethylphenyl)thiazole-4-carboxamide]
11 | 0.115 | 0.666 | 0.08 | 1500 | > 20 | 953 | Nc1sc(-c2cn[nH]c2)nc1C(=O)Nc1cnccc1N1CCC[C@H](N)C1 [Example 56, (S)-5-amino-N-(4-(3-aminopiperidin-1-yl)pyridin-3-yl)-2-(1H-pyrazol-4-yl)thiazole-4-carboxamide]
12 | 0.11 | 2.88 | 0.229 | 494 | > 20 | 5100 | Nc1sc(-c2cnc3ccccn23)nc1C(=O)Nc1cnccc1N1CCC[C@H](N)C1 [Example 57, (S)-5-amino-N-(4-(3-aminopiperidin-1-yl)pyridin-3-yl)-2-(imidazo[1,2-a]pyridin-3-yl)thiazole-4-carboxamide]
13 | 0.89 | 1.85 | 0.554 | 232 | 6.5 | 3100 | Nc1sc(-c2c(Cl)cccc2Cl)nc1C(=O)Nc1cnccc1N1CCC[C@H](N)C1 [Example 58, (S)-5-amino-N-(4-(3-aminopiperidin-1-yl)pyridin-3-yl)-2-(2,6-dichlorophenyl)thiazole-4-carboxamide]
14 | 18.2 | 355 | 48 | > 20000 | > 20 | > 20000 | C=C(C)c1nc(C(=O)Nc2cnccc2N2CCC[C@H](N)C2)c(N)s1 [Example 59, (S)-5-amino-N-(4-(3-aminopiperidin-1-yl)pyridin-3-yl)-2-(prop-1-en-2-yl)thiazole-4-carboxamide]
15 | 1.07 | 1.16 | 0.279 | 465 | 17.6 | 1400 | Nc1sc(C2CCCC2)nc1C(=O)Nc1cnccc1N1CCC[C@H](N)C1 [Example 60, (S)-5-amino-N-(4-(3-aminopiperidin-1-yl)pyridin-3-yl)-2-cyclopentylthiazole-4-carboxamide]
16 | 0.642 | 18.2 | 1.01 | 7100 | > 20 | 10400 | Nc1sc(-c2ccc3nccn3c2)nc1C(=O)Nc1cnccc1N1CCC[C@H](N)C1 [Example 61, (S)-5-amino-N-(4-(3-aminopiperidin-1-yl)pyridin-3-yl)-2-(imidazo[1,2-a]pyridin-6-yl)thiazole-4-carboxamide]
17 | 1.34 | 8.87 | 0.326 | 6000 | 10.4 | 364 | Nc1sc(-c2ccccc2F)nc1C(=O)Nc1cnccc1N1C[C@@H](N)C[C@@H](F)C1 [Example 62, 5-amino-N-(4-((3S,5R)-3-amino-5-fluoropiperidin-1-yl)pyridin-3-yl)-2-(2-fluorophenyl)thiazole-4-carboxamide]
18 | 0.437 | 3.86 | 0.246 | 3400 | 12.9 | 19900 | Nc1sc(-c2c(F)cccc2F)nc1C(=O)Nc1cnccc1N1C[C@@H](N)C[C@@H](F)C1 [Example 63, 5-amino-N-(4-((3S,5R)-3-amino-5-fluoropiperidin-1-yl)pyridin-3-yl)-2-(2,6-difluorophenyl)thiazole-4-carboxamide]
